Drawing on EP2444086A1, “Combinations comprising DHODH inhibitors and COX inhibitors” (Almirall, S.A., priority 2010, dated 2012), this text covers IC50 for three compounds.

This test has as its system HaCaT cells. The test can be described thus: Proliferation assay (ATP-lite bioluminescent assay of intracellular ATP content). To be noted: Homo sapiens, 144 h; inhibition of proliferation of HaCaT cells, 6 days incubation, 10% FBS, absolute IC50, mean of 3 experiments. The class given is cell-based. The protocol:
Human adult low calcium high temperature (HaCaT) cells are spontaneously transformed human keratinocytes that have the characteristics of basal epidermal keratinocytes (Boukamp et at. J Cell Biol 106:761-771, 1988) This line can be used as in vitro model for highly proliferative epidermis (Ockenfels et at., Arch Dermatol Res 287:301-309, 1995)
HaCaT cells exponentially growing were plated in clear bottom, white walled, 96-well plates at a density of 5000 cells/well in 100 µL Dulbecco's modified Eagle's medium (DMEM) containing 1% fetal bovine serum (FBS), and incubated overnight at 37 °C, 5% CO2. Next day, media in each well was replaced with 50 µL growth medium containing 10% FBS. 50 µL of compounds at two-fold the desired concentration in growth medium containing 2% dimethyl sulfoxide (DMSO) were added to the wells. Six wells were replaced with fresh 100 µL of medium containing 1% FBS and 1% DMSO and were used as a control of no proliferation. Six other wells were replaced with fresh 100 µL of medium containing 10% FBS and 1% DMSO and were used as a control of top proliferation. Each compound concentration was tested in triplicate and ranged from 100 µM to 0.4 µM in half-log serial dilutions. Plates were incubated at 37°C 5% CO2 for 6 consecutive days. On the day of the assay, media was removed and replaced with 100 µL of phosphate buffered saline (PBS). A bioluminescent assay was performed to assess the intracellular adenosine-5'-triphosphate (ATP) content following the manufacturer instructions (ATP-lite, Perkin Elmer, Belgium). Results were expressed as a % of inhibition of proliferation in relation to the top and bottom proliferation wells. Absolute IC50 corresponded to the concentration of compound that caused 50% inhibition of proliferation. Table 1 depicts the mean and the standard deviation of 3 experiments for each indicated compound/combination.

Structures are written as SMILES. pIC50: −log10 of the molar value.

For the compound `COc1cccc(-c2cc(F)c(Nc3ncccc3C(=O)O)c(F)c2)c1` [Example 1, 2-(3,5-difluoro-3'-methoxybiphenyl-4-ylamino)nicotinic acid], the pIC50 is 6.24.
For `O=C(O)c1cc(C2CC2)ccc1Nc1cnc(-c2c(F)cccc2F)nc1` [Example 2, 5-cyclopropyl-2-(2-(2,6-difluorophenyl)pyrimidin-5-ylamino)benzoic acid], the pIC50 is 6.59.
Take `CC(O)=C(C#N)C(=O)Nc1ccc(C(F)(F)F)cc1` [Example 3, 2-Butenamide, 2-cyano-3-hydroxy-N-[4-(trifluoromethyl)phenyl]-, reference compound]: the pIC50 is 4.82.

The term pIC50 denotes the IC50 on a negative log10 scale, so that one unit is a factor of ten.
